Measured values: patent publication US20120172375A1, “COMPOUNDS AND METHODS OF PROMOTING OLIGODENDROCYTE PRECURSOR DIFFERENTIATION” (priority 2008, published 2012)
Values joined by “and” are separate entries in the source; they are usually repeats but may differ in a detail not shown here. Equal values may be shown once. “Also recorded” adds a separate entry of the source. Read-outs that look alike come from different tables or passages of the source. Each block holds one compound with its values, some of them ahead of it.

How the values were obtained:
[1] = system: oligodendrocyte progenitor cells; experiment: Western blot for myelin proteins PLP/DM20 and CNPase in treated oligodendrocyte progenitor cells; type: cell-based, mouse; conditions: for induction of PLP/DM20 and CNPase expression at low concentrations: 0.01 and 0.1, 48 hrs (FIG. 2); for EC50: Mus musculus, Oligodendrocyte progenitor cell
Description: Oligodendrocyte progenitors were generated from embryonic neural progenitors growing in cell aggregates known as neurospheres (Nphs). Nph were prepared from embryos at 14.5 days of gestation obtained from timed pregnant females of either wild type mice or the proteolipid protein-enhanced-green fluorescence protein (Plp-EGFP) transgenic mouse. In brief, after separation of meninges and cerebellum, cerebrum tissue was mechanically triturated with a 1 ml Gilson pipette until total tissue disaggregation was achieved, filtered through a 70 μm cell strainer (Fisher Scientific, Pittsburg, Pa.) and plated in 25 cm^2 plastic culture flasks (2 brains/flask). Nph proliferation media (NPM) was DMEM/F12, B27 neuronal supplement (Gibco, Baltimore, Md.) and 10 ng/ml EGF (Sigma, St. Louis, Mo.). After 48-72 hr, floating Nphs were passaged at a 1:3 ratio in the same medium every 3-4 days. To generate oligodendrocyte progenitors, single cells suspensions were obtained by chemical disgregation with the mouse NeuroCult dissociation kit (StemCell Technologies, Alberta, Canada). The single cell suspension was filtered through a 70 μm cell strainer and plated on 96-well poly-D-Lysine (PDL)-coated plates at a cell density of 1.5×10^4 cells/cm^2. Cells were maintained in NPM supplemented with 10 ng/ml PDGF/bFGF instead of EGF. Bipolar, oligodendrocyte progenitor cells were observed 24 hours after plating. At the Moment of treatment to induce oligodendrocyte progenitor differentiation, the media was changed to OPC differentiation media containing NPM with a 1:10 dilution of PDGF/FGF.
For myelin protein analyses, cells were grown on 100 mm culture plates and after exposure to small molecules or controls were washed twice with ice-cold PBS. RIPA lysis buffer was added to the plates and the cells were scraped, collected and disrupted with a homogenizer on ice. Cell homogenates were then centrifuged at 6,000×g, 10 min, 4° C. and supernatants separated in a fresh tube. After adding Laemli loading buffer, proteins were denaturized at 70° C. for 10 mm and loaded in gradient gels (4-20, Criterion, BioRad, Calif.). Electroforetically separated proteins were electro-transferred to nitrocellulose membranes in a semi-dry apparatus and unspecific bonds were blocked with IRdye blocking solution for at least 1 hr at RT. After washing twice with TBS-T, primary antibodies were added and incubated over night at 4° C. Membranes were incubated with secondary, IRdye-infrared conjugated antibodies for 1 hr at RT and visualized on the Odyssey scanner.
The primary screening to select positive compounds was performed at a standard concentration of 10 μM with cell morphology analysis 48 hrs after treatment. Dose response curves at 48 hrs treatment time were performed to determine the minimum concentration compounds A, A-7 and B needed to induce cell maturation. We assessed oligodendrocyte differentiation by cell morphology changes, green fluorescence in cells generated from or Plp-EGFP transgenic mouse, immunostaining for myelin proteins and western blot for expression of the oligodendrocyte markers PLP/DM20 and 2′,3′, cyclic nucleotide 3′ phosphohydrolase (CNPase). EC50 values were also calculated based on results of western blot for myelin proteins and subsequent band densitometry analysis. Additionally, we followed cell differentiation induced over long time exposure to compounds A and B (7 days, 0.1-10 μM).

[2] = system: lysolecithin-demyelinated cerebellar explants; experiment: Myelin regeneration in lysolecithin-demyelinated cerebellar explants; type: cell-based, mouse; conditions: 1 μM, 10 additional days after lysolecithin
Description: Myelination-demyelination-remyelination studies in cerebella organotypic cultures were carried out. In brief, after careful dissection to keep the tissue intact, cerebella of postnatal day 4-7 wild type or Plp-EGFP mouse pups was sectioned at 400-μm thickness using a Leica VT1000S vibratome. Cerebella sections were then plated on insert plates and a few droplets of high-glucose media were added to cover the tissue during the first 6 hours to allow attachment of the slices to the insert plate surface. Media used was 50% DMEM/F12, 25% Hank's buffered salt solution (both from Gibco), 25% horse serum, 5 mg/ml glucose and a combination of streptomycin/penicillin (Gibco). When the slices were firmly attached, fresh media was added to cover the tissue and the cultures were maintained in this conditions during 4-10 days. To induce demyelination, 0.5 mg/ml lysolecithin (I′-monoacyl-L-3-glycerylphosphorylcholine, Sigma) was added to the culture media for 17 hrs. After this time, the culture media was changed and treatments were performed by adding small molecules or DMSO controls to the plates for 4-10 additional days. Demyelination-remyelination was assessed by green fluorescence (Plp-EGFP) or immunostaining for myelin-axonal proteins and visualization was performed by confocal microscopy.
Acute demyelination of cerebellum tissue explants has been previously used as a reliable methodology to study myelin formation and regeneration Taking advantage of our Pip-EGFP mouse, which allowed for the accurate tracking of oligodendrocyte cell behavior during myelination/demyelination/remyelination and the cerebellar explants methodology, we analyzed the effect of compounds A, A-7 and B or oligodendrocyte cells and myelin regeneration after demyeliantion of the cerebellar explants with lysolecithin. Cerebellum from postnatal day 7 mice pups (P7) was sectioned and maintained in culture (see methods). […]

[3] = 48 hrs, read-out: EC50 for CNPase expression (western blot)
[4] = 48 hrs, read-out: EC50 for PLP/DM20 expression (western blot)

- EC50 [1, 3]: 10 nM
- EC50 [1, 4]: 23 nM
SMILES: CCS(=O)(=O)N1CCN(C(=O)COc2ccc(-c3ccccc3)cc2)CC1 [Compound A, 1-[(4-biphenylyloxy)acetyl]-4-(ethylsulfonyl)piperazine]
- induction of PLP/DM20 and CNPase expression at low concentrations [1]: observed
- low concentration at which increased expression of the major myelin proteins is already detectable ([1]; 48 hrs): 0.1 µM
- PLP/DM20 Expression (WB, % of Control) ([1]; Table 3, 10 μM, 48 hrs): 195 ± 25.8 n = 6; p <0.01 % of Control
- PLP/DM20 Expression (WB, % of Control) ([1]; Table 4, 1 μM): 201.2 ± 49.4 % of Control
- PLP/DM20 Expression (WB, % of Control) ([1]; Table 4, 10 μM): 195.1 % of Control and 195.1 ± 25.8 % of Control
- oligodendrocyte cell recovery and myelin regeneration [2]: remarkable oligodendrocyte cell recovery; also recorded: evident oligodendrocyte cell recovery and myelin regeneration

SMILES: O=[N+]([O-])c1ccc(F)c(NS(=O)(=O)c2ccc(F)cc2)c1 [Compound B, 4-fluoro-N-(2-fluoro-5-nitrophenyl)benzenesulfonamide]
- induction of PLP/DM20 and CNPase expression at low concentrations [1]: observed
- oligodendrocyte cell differentiation at high doses compared with control cells ([1]; 10-50 μM): did not induce higher oligodendrocyte cell differentiation
- concentrations with significant/effective induction of myelin protein expression (western blot densitometry) ([1]; 48 hrs): 0.01 to 1 µM
- EC50 [1, 3]: 5 nM
- EC50 [1, 4]: 7 nM
- oligodendrocyte cell recovery and myelin regeneration [2]: remarkable oligodendrocyte cell recovery; also recorded: evident oligodendrocyte cell recovery and myelin regeneration

SMILES: CC(C)N1CCN(C(=O)COc2ccc(-c3ccccc3)cc2)CC1 [Compound A-7, 1-(Biphenyl-4-yloxy)acetyl-4-isopropylpiperazine]
- myelin protein PLP/DM20 expression compared to other compounds and controls [1]: dramatic up-regulation
- reduction of the amount necessary to induce the same effect as 10 μM compound A [1]: 1-2 orders of magnitude
- induction of PLP/DM20 expression relative to levels of the A treated cells ([1]; 10 μM): 147%
- effect at 50 μM ([1]; 50 μM): slightly decreases
- induction of PLP/DM20 and CNPase expression at low concentrations [1]: observed
- EC50 [1, 3]: 70 nM
- EC50 [1, 4]: 30 nM
- PLP/DM20 Expression (WB, % of Control) ([1]; Table 3, 10 μM, 48 hrs): 286.8 % of Control
- PLP/DM20 Expression (WB, % of Control) ([1]; Table 3, 10 μM, 48 hrs, listed as drawing 48): 286.8 ± 16.5 n = 6; p <0.01 % of Control
- PLP/DM20 Expression (WB, % of Control) ([1]; Table 4, 1 μM): 263.3 % of Control and 263.3 ± 25.2 % of Control
- PLP/DM20 Expression (WB, % of Control) ([1]; Table 4, 10 μM): 286.8 ± 16.5 % of Control
- oligodendrocyte cell recovery and myelin regeneration [2]: remarkable oligodendrocyte cell recovery; also recorded: evident oligodendrocyte cell recovery and myelin regeneration
